Results: patent US8088916B2, “Hyaluronic acid-methotrexate conjugate” (priority 2004, dated 2012)

Tests used:
[1] = test system: human synovial cells (HFLS); test: Anti-proliferative effect on synovial cells stimulated by TNF-α ([3H]-deoxyuridine uptake); format: cell-based; conditions: TNF-α 10 ng/mL, 5 days culture, concentration calculated as MTX from conjugation rate
From the text: An effect of the HA-MTX conjugates of the invention on cell proliferation induced by TNF-α stimulation was examined using human synovial cells (HFLS). The main lesion in rheumatoid arthritis (RA) occurs in the synovial tissue, and, as one of the features, it is known that synovial cells abnormally proliferate to form a granulation tissue (pannus) and thereby destroy the cartilage and bone of the joint. Secondary synovitis is also observed in osteoarthritis (OA). […] Thus, a compound inhibiting the proliferation of synovial cells stimulated by the inflammatory cytokine TNF-α suppresses the progression of the pathologic conditions of RA and OA and becomes a therapeutic drug therefor. The sterile aqueous solutions of the HA-MTX conjugates in Example 2 (Table 2) were used as test substances. HFLS (CA40405, Lot Nos. 1413 and 1493) was purchased from Cell Applications Ins. for use. HFLS was seeded at 5,000 cells/well on a 96-well plate (Falcon) and cultured for 3 hours in Iscove's modified Dulbecco's medium (IMDM) containing 5% FBS and 1× Antibiotic-Antimycotic (GIBOC). After cellular attachment, TNF-α (final concentration: 10 ng/mL) and each HA-MTX conjugate at each concentration was added, followed by cultivation for 5 days. Two days before the end of culture, was added 37 kBq/well of [^3H]-deoxyuridine in the cells (MORAVEK), followed by determining the uptake quantity (radioactivity) of [^3H]-deoxyuridine using a scintillation counter. Cells were recovered by unsticking them with 0.05% trypsin-0.2% EDTA. Radioactivity determined in each of the experiments with each test substance was calculated as a relative value (% of control), using, as control, radioactivity in the group of cells cultured without adding any test substance. […] GraphPad Prism 3.02).

[2] = test system: mBSA-induced monoarthritis model; test: Suppressive effect on knee joint swelling in mBSA-induced monoarthritis model; format: in vivo, rat; conditions: for AUC (% of control) (mean ± SEM): AUC of knee joint swelling to two weeks after induction, control = HA-treated group, 50 μL into right knee joint 7 and 1 day before and 7 days after induction; for suppressive effect on joint swelling / alleviating effect on synovitis: Experimental Example 4: conjugate vs equal amount of MTX vs mixture HA+MTX, FIGS. 2 and 3
Protocol: An in vivo synovitis-suppressing effect of each HA-MTX conjugate of the invention was assessed on the basis of a suppressive effect on knee joint swelling in a methylated bovine serum albumin (mBSA)-induced monoarthritis model of rat. Since the mBSA-induced arthritis model employed in this experimental example is widely used as an antigen-induced arthritis model, and known to develop synovitis (Sven E. Andersson, et al., The Journal of Rheumatology (1998) 25: 9, 1772-7), the in vivo knee joint swelling-suppressing effect observed in this model conceivably represents a synovitis-suppressing effect. The compounds of the invention suppressing synovitis in vivo are useful as therapeutic drugs for joint diseases accompanied by synovitis (RA, OA, and the like).
The animal used was the LEW/Crj rat (6-week old male, from Charles River Laboratories Japan, Inc.). Into the flank of the rat was subcutaneously injected 0.5 mL of an emulsion prepared from a 2 mg/mL mBSA (Calbiochem) aqueous solution and an equal amount of Freund's complete adjuvant (Difco) 21 and 14 days before inducing arthritis. The arthritis was induced by administering 50 μL of a 2 mg/mL mBSA aqueous solution into the right knee joint. The left knee joint was untreated, and served as control in each individual. Each test substance (sterile aqueous solution) and the control drug hyaluronic acid were each administered into the right knee joint in an amount of 50 μL 7 and 1 day before and 7 days after inducing arthritis.
The determination of knee joint swelling involved measuring the widths of both knee joints with calipers to define the left/right difference (right knee diameter-left knee diameter) as a knee joint swelling. The width of each knee joint was measured at a frequency of twice a week from immediately before inducing arthritis to two weeks later to calculate AUC (an abbreviation for Area Under the Curve; here, it means an area under a curve with time for the joint swelling) from the transition thereof with time. At each measurement, the mean and standard deviation of AUC were calculated to perform an unpaired t-test between each test substance-treated group and the HA-treated group, and significant difference was judged to be present if the probability level is less than 5%. Statistical analysis used SAS version 6.12 (SAS Institute Japan). In addition, the AUC of each test substance was calculated, using that in the HA-treated group as a control, as a relative value (% of control) therefor.
To verify the usefulness of the HA-MTX conjugate of the invention, the suppressive effect on joint swelling was compared, in accordance with the method of Example 3, among: 1) a group treated with the HA-MTX conjugate (sterile aqueous solution) prepared in Example 2-2; 2) a group treated with a solution containing MTX of an amount equal to that of MTX contained in the HA-MTX conjugate; and 3) a group of treated with a mixture (HA+MTX) of MTX and hyaluronic acid (HA) of amounts equal to those contained in the conjugate. The transition of knee joint swelling with time in this test is shown in FIG. 2, and the AUC thereof in FIG. 3.

[3] = Measurement of viscoelasticity; format: physicochemical; conditions: sterile solutions, 37° C., cone 4 cm, CSL500 stress-controlled rheometer; FIG. 1
Protocol: The viscoelasticities of the sterile solutions of hyaluronic acids (molecular weights: 1,900,000 and 800,000) and the conjugates of Examples 2-1, 2-8, 2-18, 2-27, and 2-29 were measured at 37° C. using a cone 4 cm in diameter by a CSL500 stress-controlled rheometer (from Carri-Med Ltd.).

[4] = test system: collagenase-induced arthritis (OA) model; test: Suppressive effect on knee joint swelling in collagenase-induced arthritis (OA) model; format: in vivo, rat; conditions: AUC of knee joint swelling to 20 days after induction; 50 μL into right knee joint once a week from 7 and 1 day before induction; compared with HA-treated group
Protocol: An in vivo synovitis-suppressing effect of the HA-MTX conjugate was evaluated in collagenase-induced OA model rats. The collagenase-induced OA model is a model in which inflammation has been induced within the knee joint by injecting collagenase into the knee joint to directly digest collagen in cartilage tissue. […] Therefore, the compound of the invention suppressing inflammation in the model and inhibiting cartilage degeneration therein will be useful as a therapeutic drug for OA.
The animal used was the SD/Crj rat (6-week old male, from Charles River Laboratories Japan, Inc.). Into the articular cavity of the right knee was administered 50 μL of 1.5% collagenase (Sigma) solution to induce arthritis. The left knee joint was untreated to use as a control in each individual. Each test substance was administered into the right knee joint in an amount of 50 μL once a week from 7 and 1 day before inducing arthritis.
The determination of knee joint swelling involved measuring the widths of both knee joints with calipers to determine the left/right difference (right knee diameter-left knee diameter), which was defined as a knee joint swelling. The width of each knee joint was measured on the order of twice a week from immediately before inducing arthritis to 20 days later to calculate AUC from a graph showing the transition thereof with time. At each measurement, the mean and standard error of the mean of AUC were calculated to perform an unpaired t-test between each test substance-treated group and the HA-treated group, and significant difference was judged to be present if the probability level is less than 5%.

Row | Compound | IC50 [1] [µM] | AUC (% of control) (mean ± SEM) [2] | also measured
1 | MTX-γ-PheGly-NHC10H20O3NH-HA [Example 2-42] | 14 |  | 
2 | MTX-α-PhePhe-NHC2H4NH-HA [Example 2-7] |  | 46.5 ± 4.8 % of control | 
3 | MTX-α-PheGly-NHC10H20O2NH-HA [Example 2-19] | 5.4 |  | 
4 | CN(Cc1cnc2nc(N)nc(N)c2n1)c1ccc(C(=O)N[C@@H](CCC(=O)O)C(=O)O)cc1 [MTX alone, methotrexate] | 0.055 |  | suppressive effect on joint swelling / alleviating effect on synovitis [2]: neither MTX alone nor the mixture of HA and MTX had a sufficient alleviating effect on synovitis
5 | MTX-α-Glu-NHC10H20O3NH-HA [Example 2-29] | 8.4 | 68.8 ± 6.7 % of control | viscoelasticity [3]: viscoelasticities intermediate between those of the hyaluronic acids having molecular weights of 800,000 and 1,900,000
6 | MTX-α-PhePhe-NHC2H4NH-HA [Example 2-6] | 0.091 | 41.6 ± 7.6 % of control | 
7 | MTX-α-PheGly-NHC8H16O2NH-HA [Example 2-20] | 18 | 65.3 ± 9.6 % of control | 
8 | MTX-α-PhePhe-NHC2H4NH-HA [Example 2-4] | 11 | 69.0 ± 6.5 % of control | 
9 | MTX-α-PheβAla-NHC10H20O3NH-HA [Example 2-24] | 3.5 |  | 
10 | MTX-α-PheGly-NHC6H12O2NH-HA [Example 2-21] | 0.83 | 47.4 ± 8.8 % of control | 
11 | MTX-α-PheGly-NHC10H20O3NH-HA [Example 2-16] | 13 |  | 
12 | MTX-α-PhePhe-NHC2H4NH-HA [Example 2-5] | 1.1 | 51.7 ± 3.8 % of control | 
13 | MTX-α-PhePhe-Lys-HA [Example 2-14] | 15 | 54.3 ± 7.4 % of control | 
14 | MTX-α-PhePhe-NHC5H10NH-HA [Example 2-13] | 1.5 | 60.5 ± 9.9 % of control | 
15 | MTX-α-Ser-NHC10H20O3NH-HA [Example 2-33] | 36 |  | 
16 | MTX-γ-PhePhe-NHC4H8ONH-HA [Example 2-41] |  | 67.1 ± 8.3 % of control | 
17 | MTX-α-βAla-NHC10H20O3NH-HA [Example 2-38] |  | 69.3 ± 4.2 % of control | 
18 | MTX-α-PhePhe-NHC8H16O2NH-HA [Example 2-10] | 1.2 | 63.7 ± 9.1 % of control | 
19 | MTX-α-PheβAla-NHC2H4NH-HA [Example 2-25] | 0.29 |  | 
20 | MTX-α-Ile-NHC2H4NH-HA [Example 2-28] | 12 | 63.5 ± 4.7 % of control | 
21 | MTX-α-Val-NHC10H20O3NH-HA [Example 2-35] | 11 |  | 

Row | Compound | IC50 [1] [µM] | AUC (% of control) (mean ± SEM) [2] | also measured
22 | MTX-α-Trp-NHC10H20O3NH-HA [Example 2-32] | 4.7 |  | 
23 | MTX-α-PhePhe-NHC4H80NH-HA [Example 2-12] | 0.3 |  | 
24 | MTX-α-Glu-NHC2H4NH-HA [Example 2-30] | 54 | 58.3 ± 7.4 % of control | 
25 | MTX-α-PhePhe-NHC2H4NH-HA [Example 2-2′] | 0.72 | 65.5 ± 7.5 % of control | 
26 | MTX-α-AsnPhePhe-NHC10H20O3NH-HA [Example 2-47] | 1.1 | 42.1 ± 6.3 % of control | 
27 | MTX-α-PheGly-NHC10H20O3NH-HA [Example 2-17] | 13 | 56.1 ± 8.2 % of control | 
28 | MTX-α-PheGly-NHC4H8ONH-HA [Example 2-22] | 3 |  | 
29 | MTX-α-Leu-NHC10H20O3NH-HA [Example 2-34] | 3.6 |  | 
30 | MTX-α/γ-GlyPheLeuGly-NHC10H20O3NH-HA (methotrexate-GFLG-{NHC10H20O3NH-hyaluronic acid}; also: methotrexate linked via α- or γ-carboxyl) [Example 2-48] | 1.3 | 58.8 ± 11.6 % of control | 
31 | MTX-γ-PhePhe-NHC10H20O3NH-HA [Example 2-39] | 3.2 |  | 
32 | MTX-α-Tyr-NHC10H20O3NH-HA [Example 2-31] | 7 | 67.7 ± 6.2 % of control | 
33 | MTX-α-PhePhe-NHC6H12O2NH-HA [Example 2-11] | 0.25 |  | 
34 | MTX-α-PhePhe-NHC10H20O3NH-HA [Example 2-49] | 13 |  | 
35 | MTX-α-PhePhe-NHC2H4NH-HA [Example 2-3] |  | 76.2 ± 7.7 % of control | 
36 | MTX-α-PheGly-NHC10H20O3NH-HA [Example 2-15] | 0.48 |  | 
37 | MTX-α-Phe-NHC10H20O3NH-HA [Example 2-26] | 1.7 |  | 
38 | MTX-α-PhePhe-NHC10H20O2NH-HA [Example 2-9] | 1.3 |  | 
39 | MTX-α-PhePhe-NHC2H4NH-HA [Example 2-2] | 0.14 | 45.0 ± 6.8 % of control | suppressive effect on joint swelling / alleviating effect on synovitis [2]: markedly strong suppressive effect on the joint swelling in the arthritis model compared to that of MTX alone or the mixture of MTX and HA; AUC (% of control) (mean ± SEM) [4]: 48.9 ± 3.7 % of control
40 | MTX-α-His-NHC10H20O3NH-HA [Example 2-36] | 17 |  | 
41 | MTX-α-PhePro-NHC10H20O3NH-HA [Example 2-23] | 12 |  | 
